molecular target: T1, human B1R (Homo sapiens, UniProt P46663); experiment: Functional assay at bradykinin receptor 1 (B1R): Ca2+ fluorescence (Fluo-4) in FLIPR/Novostar, antagonist mode; type: cell-based; settings: test substance 10 µM; CHO K1 cells stably transfected with human B1R gene (hB1R-Zellen); agonist Lys-Des-Arg9-Bradykinin at EC80; % inhibition relative to maximal achievable inhibition
T1 construct: expressed in transfected cells; host or cells: CHO K1 cells (Chinese Hamster Ovary), stably transfected
T1 sequence (P46663 1-353): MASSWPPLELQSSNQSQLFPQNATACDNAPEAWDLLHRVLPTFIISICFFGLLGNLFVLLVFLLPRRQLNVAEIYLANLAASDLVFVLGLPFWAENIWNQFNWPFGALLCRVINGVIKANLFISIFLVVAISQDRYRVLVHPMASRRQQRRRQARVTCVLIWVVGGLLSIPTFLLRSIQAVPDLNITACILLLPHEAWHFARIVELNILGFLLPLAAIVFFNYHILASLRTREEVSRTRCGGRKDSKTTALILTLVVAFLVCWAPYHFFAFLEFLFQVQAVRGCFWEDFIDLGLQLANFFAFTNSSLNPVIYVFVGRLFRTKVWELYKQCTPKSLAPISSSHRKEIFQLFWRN
How it was run: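 CHO K1 cells stably expressing human B1R were loaded with Fluo-4 and preincubated 6–20 min with test compound before Lys-Des-Arg9-bradykinin at its EC80. Peak fluorescence (ex 488/em 540 nm) gave % inhibition versus maximal inhibition; IC50 from several concentrations, n=2 or 3.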

| % Inhibierung (human B1R) bei 10 µM | Compound |
| --- | --- |
| 100% | N-[1-(4-Fluor-cyclohexyl)-3,3-dimethyl-piperidin-4-yl]-2-[3-[[(4-methoxy-2,6-dimethyl-phenyl)sulfonyl]-methyl]-[1,2,4]oxadiazol-5-yl]-acetamid [SC-48] |

same assay, conditions: test substance 10 µM; CHO K1 cells stably transfected with human B1R gene (hB1R-Zellen); agonist Lys-Des-Arg9-Bradykinin at EC80; % inhibition relative to maximal achievable inhibition; read-out: % Inhibierung (human B1R) bei 10 µM

| inhibition at 10 µM | Compound |
| --- | --- |
| 97% | COc1cc(C)c(S(=O)(=O)Cc2noc(C(=O)NC3CCC(c4ccncc4)CC3)n2)c(C)c1 (stereo not shown) [SC-18, 3-[[(4-Methoxy-2,6-dimethyl-phenyl)sulfonyl]-methyl]-N-(4-pyridin-4-yl-cyclohexyl)-[1,2,4]oxadiazol-5-carbonsäure amid] |
| 98% | COc1cc(C)c(S(=O)(=O)Cc2noc(CC(=O)N(C)C3CCN(C(=O)c4ccncc4)CC3)n2)c(C)c1 [SC-27, 2-[3-[[(4-Methoxy-2,6-dimethyl-phenyl)sulfonyl]-methyl]-[1,2,4]oxadiazol-5-yl]-N-methyl-N-[1-(pyridin-4-carbonyl)-piperidin-4-yl]-acetamid] |
| 100% | COc1cc(C)c(S(=O)(=O)Cc2noc(C(=O)NC3CCN(c4ccncc4)CC3(C)C)n2)c(C)c1 (stereo not shown) [SC-12, N-(3,3-Dimethyl-1-pyridin-4-yl-piperidin-4-yl)-3-[[(4-methoxy-2,6-dimethyl-phenyl)sulfonyl]-methyl]-[1,2,4]oxadiazol-5-carbonsäure amid] |
| 100% | COc1cc(C)c(S(=O)(=O)Cc2noc(CC(=O)N(C)C3CCN(C4CCC(C)CC4)CC3)n2)c(C)c1 (stereo not shown) [SC-20, 2-[3-[[(4-Methoxy-2,6-dimethyl-phenyl)sulfonyl]-methyl]-[1,2,4]oxadiazol-5-yl]-N-methyl-N-[1-(4-methyl-cyclohexyl)-piperidin-4-yl]-acetamid] |
| 89% | Cc1cccc(Cl)c1S(=O)(=O)Cc1noc(CC(=O)N(C)[C@H]2CCC[C@@H](N3CCN(C)CC3)C2)n1 [SC-50, 2-[3-[[(2-Chlor-6-methyl-phenyl)sulfonyl]-methyl]-[1,2,4]oxadiazol-5-yl]-N-methyl-N-[(1S,3R)-3-(4-methyl-piperazin-1-yl)-cyclohexyl]-acetamid] |

Second part, the compound before the results:

| Compound | inhibition at 10 µM |
| --- | --- |
| COCCN1CCC(NC(=O)Cc2nc(CS(=O)(=O)c3c(C)cccc3Cl)no2)C(C)(C)C1 (stereo not shown) [CC-94, 2-[3-[[(2-Chlor-6-methyl-phenyl)sulfonyl]-methyl]-[1,2,4]oxadiazol-5-yl]-N-[1-(2-methoxy-ethyl)-3,3-dimethyl-piperidin-4-yl]-acetamid] | 100% |
| COc1cc(C)c(S(=O)(=O)Cc2c(C)nn(CC(=O)NC3CCC(NC4CC4)CC3(C)C)c2C)c(C)c1 (stereo not shown) [CC-174, N-[4-(Cyclopropylamino)-2,2-dimethyl-cyclohexyl]-2-[4-([(4-methoxy-2,6-dimethyl-phenyl)sulfonyl]-methyl]-3,5-dimethyl-1 H-pyrazol-1-yl]-acetamid] | 100% |
| COc1cc(C)c(S(=O)(=O)Cc2nc(CC(=O)NC3CCN(C(C)=O)CC3(C)C)no2)c(C)c1 (stereo not shown) [CC-30, N-(1-Acetyl-3,3-dimethyl-piperidin-4-yl)-2-[5-[[(4-methoxy-2,6-dimethyl-phenyl)sulfonyl]-methyl]-[1,2,4]oxadiazol-3-yl]-acetamid] | 90% |
| COCCN1CCC(NC(=O)Cn2nc(CS(=O)(=O)c3c(C)cc(OC)cc3C)cc2C)C(C)(C)C1 (stereo not shown) [CC-157, 2-[3-[[(4-Methoxy-2,6-dimethyl-phenyl)sulfonyl]-methyl]-5-methyl-1H-pyrazol-1-yl]-N-[1-(2-methoxy-ethyl)-3,3-dimethyl-piperidin-4-yl]-acetamid] | 61% |
| COc1cc(C)c(S(=O)(=O)Cc2nnc(CC(=O)NC3CCC(N4CCCC4)CC3)o2)c(C)c1 (stereo not shown) [CC-40] | 100% |
| COc1cc(C)c(S(=O)(=O)Cc2noc(CC(=O)N3CCC4(CC3)CCN(c3ccncc3)C4)n2)c(C)c1 [CC-134, 2-[3-[[(4-Methoxy-2,6-dimethyl-phenyl)sulfonyl]-methyl]-[1,2,4]oxadiazol-5-yl]-1-(3-pyridin-4-yl-3,8-diazaspiro[4.5]decan-8-yl)-ethanon] | 100% |
| COc1cc(C)c(S(=O)(=O)Cc2cc(C)n(CC(=O)NC3CCC(NC4CC4)CC3(C)C)n2)c(C)c1 (stereo not shown) [CC-177, N-[4-(Cyclopropylamino)-2,2-dimethyl-cyclohexyl]-2-[3-[[(4-methoxy-2,6-dimethyl-phenyl)sulfonyl]-methyl]-5-methyl-1 H-pyrazol-1-yl]-acetamid] | 99% |
| COc1cc(C)c(S(=O)(=O)Cc2noc(C(=O)N3CCC(N4CCN(C)CC4)CC3)n2)c(C)c1 [CC-129, [3-[[(4-Methoxy-2,6-dimethyl-phenyl)sulfonyl]-methyl]-[1,2,4]oxadiazol-5-yl]-[4-(4-methyl-piperazin-1-yl)-piperidin-1-yl]-methanon] | 100% |
| Cc1cccc(Cl)c1S(=O)(=O)Cc1noc(C(=O)N2C3CCC2CC(Oc2ccncc2)C3)n1 [CC-150, [3-[[(2-Chlor-6-methyl-phenyl)sulfonyl]-methyl]-[1,2,4]oxadiazol-5-yl]-[(1S,5R)-3-pyridin-4-yloxy-8-azabicyclo[3.2.1]octan-8-yl]-methanon] | 100% |
| Cc1cccc(Cl)c1S(=O)(=O)Cc1noc(C(=O)N2CCC3(CC2)CCN(c2ccncc2)CC3)n1 [CC-148, [3-[[(2-Chlor-6-methyl-phenyl)sulfonyl]-methyl]-[1,2,4]oxadiazol-5-yl]-(9-pyridin-4-yl-3,9-diazaspiro[5.5]undecan-3-yl)-methanon] | 100% |
| Cc1cccc(Cl)c1S(=O)(=O)Cc1noc(C(=O)N2CCC3(CC2)CCN(c2ccncc2)C3)n1 [CC-145, [3-[[(2-Chlor-6-methyl-phenyl)sulfonyl]-methyl]-[1,2,4]oxadiazol-5-yl]-(3-pyridin-4-yl-3,8-diazaspiro[4.5]decan-8-yl)-methanon] | 100% |
| COc1cc(C)c(S(=O)(=O)Cc2c(C)nn(CC(=O)NC3CCNCC3)c2C)c(C)c1 [CC-173, 2-[4-[[(4-Methoxy-2,6-dimethyl-phenyl)sulfonyl]-methyl]-3,5-dimethyl-1H-pyrazol-1-yl]-N-piperidin-4-yl-acetamid] | 85% |
| COc1cc(C)c(S(=O)(=O)Cc2cc(C)n(CC(=O)NC3CCN(C)CC3(C)C)n2)c(C)c1 (stereo not shown) [CC-188, 2-[3-[[(4-Methoxy-2,6-dimethyl-phenyl)sulfonyl]-methyl]-5-methyl-1H-pyrazol-1-yl]-N-(1,3,3-trimethyl-piperidin-4-yl)-acetamid] | 57% |
| CN(C)C1CCC(N(C(=O)Cc2nc(CS(=O)(=O)c3cccc(Cl)c3Cl)no2)C2CC2)CC1 (stereo not shown) [CC-112, N-Cyclopropyl-2-[3-[[(2,3-dichlor-phenyl)sulfonyl]-methyl]-[1,2,4]oxadiazol-5-yl]-N-(4-dimethyl-amino-cyclohexyl)-acetamid] | 67% |
| CN(C)C1CCC(NC(=O)Cc2nc(CS(=O)(=O)c3cccc(Cl)c3Cl)no2)CC1 (stereo not shown) [CC-59, 2-[3-[[(2,3-Dichlor-phenyl)sulfonyl]-methyl]-[1,2,4]oxadiazol-5-yl]-N-(4-dimethylamino-cyclohexyl)-acetamid] | 63% |
| COc1cc(C)c(S(=O)(=O)Cc2nnc(CC(=O)N(C)C3CCNCC3(C)C)o2)c(C)c1 (stereo not shown) [CC-88, N-(3,3-Dimethyl-piperidin-4-yl)-2-[5-[[(4-methoxy-2,6-dimethyl-phenyl)sulfonyl]-methyl]-[1,3,4]oxadiazol-2-yl]-N-methyl-acetamid] | 97% |
